Here are results for 17 molecules from patent US20260285875A1, “INHIBITORS OF PARG” (858 Therapeutics, Inc., priority 2023, published 2026).

This assay addresses T1, cellular PARG (Homo sapiens, UniProt Q86W56).
T1 construct: endogenous in cells; host or cells: HeLa
Nature of the assay: Nuclear PAR accumulation assay (immunofluorescence high-content imaging, MMS-treated HeLa cells). Particulars: 1 hour compound then MMS 50 μg/mL for an additional hour. Type of assay: cell-based. The essentials:
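HeLa cells pretreated with compound for 1 h at 37° C, then given 50 μg/mL MMS for another hour. After methanol fixation, PAR was immunostained with DAPI nuclear counterstain; per-nucleus intensity and percent PAR-positive cells were imaged at 20× (≥1,000 cells/well). IC50 from four-parameter logistic fit.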

Where only a bound is given, the exact number is not on record here.

T1 sequence (Q86W56 whole entry): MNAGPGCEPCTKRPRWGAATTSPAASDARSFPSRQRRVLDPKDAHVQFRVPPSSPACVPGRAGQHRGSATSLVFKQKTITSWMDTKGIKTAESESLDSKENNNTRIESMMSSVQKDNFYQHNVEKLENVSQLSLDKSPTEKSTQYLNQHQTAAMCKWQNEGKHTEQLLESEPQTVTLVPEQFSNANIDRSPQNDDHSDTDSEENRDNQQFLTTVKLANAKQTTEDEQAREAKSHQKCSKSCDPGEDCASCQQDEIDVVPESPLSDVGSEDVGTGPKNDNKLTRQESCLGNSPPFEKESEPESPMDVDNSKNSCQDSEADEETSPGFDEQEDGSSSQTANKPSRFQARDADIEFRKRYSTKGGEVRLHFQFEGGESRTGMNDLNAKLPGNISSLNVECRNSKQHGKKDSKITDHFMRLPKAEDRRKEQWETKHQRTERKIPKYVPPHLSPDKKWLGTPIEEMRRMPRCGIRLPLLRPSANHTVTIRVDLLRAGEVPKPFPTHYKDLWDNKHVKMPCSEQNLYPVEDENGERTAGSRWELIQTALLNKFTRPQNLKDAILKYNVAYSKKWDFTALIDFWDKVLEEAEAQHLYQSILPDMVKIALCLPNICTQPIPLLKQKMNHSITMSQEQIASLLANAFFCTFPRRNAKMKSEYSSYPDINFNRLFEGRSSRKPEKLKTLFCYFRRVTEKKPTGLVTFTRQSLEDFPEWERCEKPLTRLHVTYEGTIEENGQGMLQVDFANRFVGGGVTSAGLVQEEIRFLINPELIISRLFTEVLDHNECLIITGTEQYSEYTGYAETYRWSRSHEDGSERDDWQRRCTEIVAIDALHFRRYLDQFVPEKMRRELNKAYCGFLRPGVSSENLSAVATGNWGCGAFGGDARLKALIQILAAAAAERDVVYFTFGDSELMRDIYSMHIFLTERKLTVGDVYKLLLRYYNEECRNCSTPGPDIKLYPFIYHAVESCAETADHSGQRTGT

As a reminder, the IC50 is the concentration that gives 50% inhibition. A high value points to weaker potency. Regarding `[2H]C([2H])(c1cnn(C)c1)N1C(=O)c2cc(S(=O)(=O)NC3(C)CC3)cc(Br)c2N2C1=NC[C@H]2C#C` [Example 98, (R)-9-bromo-1-ethynyl-4-((1-methyl-1H-pyrazol-4-yl)methyl-d2)-N-(1-methylcyclopropyl)-5-oxo-1,2,4,5-tetrahydroimidazo[1,2-a]quinazoline-7-sulfonamide], the IC50 is below 100 nM.

Consider `Cn1cc(CN2C(=O)c3cc(S(=O)(=O)NC4(C)CC4)ccc3N3C2=NC[C@H]3C#CC(F)F)cn1` [Example 99, (R)-1-(3,3-difluoroprop-1-yn-1-yl)-4-((1-methyl-1H-pyrazol-4-yl)methyl)-N-(1-methylcyclopropyl)-5-oxo-1,2,4,5-tetrahydroimidazo[1,2-a]quinazoline-7-sulfonamide], for which the IC50 is below 100 nM.

For the molecule `CN(C)CC#C[C@@H]1CN=C2N(Cc3cnn(C)c3)C(=O)c3cc(S(=O)(=O)NC4(C)CC4)cc(Cl)c3N21` [Example 100, (R)-9-chloro-1-(3-(dimethylamino)prop-1-yn-1-yl)-4-((1-methyl-1H-pyrazol-4-yl)methyl)-N-(1-methylcyclopropyl)-5-oxo-1,2,4,5-tetrahydroimidazo[1,2-a]quinazoline-7-sulfonamide], the IC50 was below 100 nM.

`[2H]C([2H])(c1cnn(C)c1)N1C(=O)c2cc(S(=O)(=O)NC3(C)CC3)ccc2N2C1=NC[C@H]2C#Cc1cn(C)nc1F` [Example 101, (R)-1-((3-fluoro-1-methyl-1H-pyrazol-4-yl)ethynyl)-4-((1-methyl-1H-pyrazol-4-yl)methyl-d2)-N-(1-methylcyclopropyl)-5-oxo-1,2,4,5-tetrahydroimidazo[1,2-a]quinazoline-7-sulfonamide] had an IC50 below 100 nM.

On to `Cn1cc(CN2C(=O)c3cc(S(=O)(=O)NC4(C)CC4)cc(Cl)c3N3C2=NC[C@H]3C#CCN)cn1` [Example 103, (R)-1-(3-aminoprop-1-yn-1-yl)-9-chloro-4-((1-methyl-1H-pyrazol-4-yl)methyl)-N-(1-methylcyclopropyl)-5-oxo-1,2,4,5-tetrahydroimidazo[1,2-a]quinazoline-7-sulfonamide], for which the IC50 lay within 100 to 1000 nM.

`[2H]C([2H])(c1cnn(C)c1)N1C(=O)c2cc(S(=O)(=O)NC3(C)CC3)ccc2N2C1=NC[C@H]2C#Cc1cccc(N)n1` [Example 104, (R)-1-((6-aminopyridin-2-yl)ethynyl)-4-((1-methyl-1H-pyrazol-4-yl)methyl-d2)-N-(1-methylcyclopropyl)-5-oxo-1,2,4,5-tetrahydroimidazo[1,2-a]quinazoline-7-sulfonamide] yielded a half-inhibitory concentration (IC50) below 100 nM.

`[2H]C([2H])(c1cnn(C)c1)N1C(=O)c2cc(S(=O)(=O)NC3(C)CC3)ccc2N2C1=NC[C@H]2C#CC(C)(C)N` [Example 105, (R)-1-(3-amino-3-methylbut-1-yn-1-yl)-4-((1-methyl-1H-pyrazol-4-yl)methyl-d2)-N-(1-methylcyclopropyl)-5-oxo-1,2,4,5-tetrahydroimidazo[1,2-a]quinazoline-7-sulfonamide] displayed a half-inhibitory concentration (IC50) of 100 to 1000 nM.

In turn, `[2H]C([2H])(c1cnn(C)c1)N1C(=O)c2cc(S(=O)(=O)NC3(C)CC3)ccc2N2C1=N[C@H]1CNC[C@H]12` [Example 106, (7aS,10aR)-6-((1-methyl-1H-pyrazol-4-yl)methyl-d2)-N-(1-methylcyclopropyl)-5-oxo-6,7a,8,9,10,10a-hexahydro-5H-pyrrolo[3′,4′:4,5]imidazo[1,2-a]quinazoline-3-sulfonamide] displayed a concentration for half-maximal inhibition (IC50) of 100 to 1000 nM.

Turning to `Cc1cc([C@@H]2CN=C3N(Cc4cnn(C)c4)C(=O)c4cc(S(=O)(=O)NC5(C)CC5)ccc4N32)on1` [Example 107, (S)-4-((1-methyl-1H-pyrazol-4-yl)methyl)-N-(1-methylcyclopropyl)-1-(3-methylisoxazol-5-yl)-5-oxo-1,2,4,5-tetrahydroimidazo[1,2-a]quinazoline-7-sulfonamide], the IC50 was below 100 nM.

With `[2H]C([2H])(c1cnn(C)c1)N1C(=O)c2cc(S(=O)(=O)NC3(C)CC3)ccc2N2C1=NC[C@H]2COc1cnn(C)c1` [Example 108, (S)-4-((1-methyl-1H-pyrazol-4-yl)methyl-d2)-1-(((1-methyl-1H-pyrazol-4-yl)oxy)methyl)-N-(1-methylcyclopropyl)-5-oxo-1,2,4,5-tetrahydroimidazo[1,2-a]quinazoline-7-sulfonamide], the 50% inhibitory concentration (IC50) was below 100 nM.

`[2H]C([2H])(c1cnn(C)c1)N1C(=O)c2cc(S(=O)(=O)NC3(C)CC3)ccc2N2C1=NCC21CC(CN(C)C)C1` (centres unmarked) [Example 109, 3-((dimethylamino)methyl)-4′-((1-methyl-1H-pyrazol-4-yl)methyl-d2)-N-(1-methylcyclopropyl)-5′-oxo-4′,5′-dihydro-2′H-spiro[cyclobutane-1,1′-imidazo[1,2-a]quinazoline]-7′-sulfonamide] returned a concentration for half-maximal inhibition (IC50) of 100 to 1000 nM.

Molecule `[2H]C([2H])(c1cnn(C)c1)N1C(=O)c2cc(S(=O)(=O)NC3(C)CC3)ccc2N2C1=NC[C@H]2COc1ccccn1` [Example 110, (S)-4-((1-methyl-1H-pyrazol-4-yl)methyl-d2)-N-(1-methylcyclopropyl)-5-oxo-1-((pyridin-2-yloxy)methyl)-1,2,4,5-tetrahydroimidazo[1,2-a]quinazoline-7-sulfonamide] yielded an IC50 below 100 nM.

As for `[2H]C([2H])(c1cnn(C)c1)N1C(=O)c2cc(S(=O)(=O)NC3(C)CC3)cc(Cl)c2N2C1=NC[C@H]2C#C` [Example 111, (R)-9-chloro-1-ethynyl-4-((1-methyl-1H-pyrazol-4-yl)methyl-d2)-N-(1-methylcyclopropyl)-5-oxo-1,2,4,5-tetrahydroimidazo[1,2-a]quinazoline-7-sulfonamide], the IC50 was below 100 nM.

`[2H]C([2H])(c1cnn(C)c1)N1C(=O)c2cc(S(=O)(=O)NC3(C)CC3)ccc2N2C1=NC[C@H]2C#CC1(N(C)C)CC1` [Example 112, (R)-1-((1-(dimethylamino)cyclopropyl)ethynyl)-4-((1-methyl-1H-pyrazol-4-yl)methyl-d2)-N-(1-methylcyclopropyl)-5-oxo-1,2,4,5-tetrahydroimidazo[1,2-a]quinazoline-7-sulfonamide] returned an IC50 below 100 nM.

`[2H]C([2H])(c1cnn(C)c1)N1C(=O)c2cc(S(=O)(=O)NC3(C)CC3)ccc2N2C1=NC[C@H]2CSC` [Example 113, (S)-4-((1-methyl-1H-pyrazol-4-yl)methyl-d2)-N-(1-methylcyclopropyl)-1-((methylthio)methyl)-5-oxo-1,2,4,5-tetrahydroimidazo[1,2-a]quinazoline-7-sulfonamide] registered a half-inhibitory concentration (IC50) below 100 nM.

`[2H]C([2H])(c1cnn(C)c1)N1C(=O)c2cc(S(=O)(=O)NC3(C)CC3)ccc2N2C1=NC[C@H]2COCCN(C)C` [Example 114, (S)-1-((2-(dimethylamino)ethoxy)methyl) -4-((1-methyl-1H-pyrazol-4-yl)methyl-d2)-N-(1-methylcyclopropyl)-5-oxo-1,2,4,5-tetrahydroimidazo[1,2-a]quinazoline-7-sulfonamide] had an IC50 of 100 to 1000 nM.

`Cn1cc(CN2C(=O)c3cc(S(=O)(=O)NC4(C)CC4)ccc3N3C2=NC[C@H]3COC2CC2)cn1` [Example 115, (S)-1-(cyclopropoxymethyl)-4-((1-methyl-1H-pyrazol-4-yl)methyl)-N-(1-methylcyclopropyl)-5-oxo-1,2,4,5-tetrahydroimidazo[1,2-a]quinazoline-7-sulfonamide] registered an IC50 below 100 nM.
